Reference: ChEMBL document CHEMBL6177940, “Therapeutic upregulation of DNA repair pathways: strategies and small molecule activators” (RSC Med Chem, 2024)

What was measured:
[1] = target: T1, NAD-dependent protein deacetylase sirtuin-1 (Homo sapiens) (UniProt Q96EB6); assay: Activation of N-terminal Hex/Histidine-tagged human SIRT1 extracted from Escherichia coli BL21 (DE3) by Fluorescence polarization assay; details: filed as activator
T1 sequence (whole entry): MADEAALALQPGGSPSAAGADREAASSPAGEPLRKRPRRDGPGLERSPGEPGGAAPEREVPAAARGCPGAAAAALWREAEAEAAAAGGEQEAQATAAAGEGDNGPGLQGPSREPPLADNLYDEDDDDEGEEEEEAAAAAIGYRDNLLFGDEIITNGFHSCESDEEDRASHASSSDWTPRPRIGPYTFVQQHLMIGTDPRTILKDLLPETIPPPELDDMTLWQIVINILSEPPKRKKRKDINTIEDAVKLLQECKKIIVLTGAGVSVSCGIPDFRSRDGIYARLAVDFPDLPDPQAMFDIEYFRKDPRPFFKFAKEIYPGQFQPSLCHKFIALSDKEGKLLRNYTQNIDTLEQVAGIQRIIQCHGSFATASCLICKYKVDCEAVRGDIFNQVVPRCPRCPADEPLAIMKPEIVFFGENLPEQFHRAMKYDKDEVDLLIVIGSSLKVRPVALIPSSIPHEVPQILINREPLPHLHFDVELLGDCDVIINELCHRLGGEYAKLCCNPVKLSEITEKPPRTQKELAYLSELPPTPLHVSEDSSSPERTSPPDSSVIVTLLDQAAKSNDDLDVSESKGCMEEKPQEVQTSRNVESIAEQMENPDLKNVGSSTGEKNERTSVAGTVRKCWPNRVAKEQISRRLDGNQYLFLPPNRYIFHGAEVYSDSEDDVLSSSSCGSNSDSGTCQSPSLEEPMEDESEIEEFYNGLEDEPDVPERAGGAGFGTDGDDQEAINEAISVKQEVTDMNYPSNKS

[2] = Activation of Flag/His-tagged human recombinant OGG1 (1 to 345 residues) by fluorescence based analysis
[3] = species: Mus musculus; assay: Reversal of oxidative stress-induced DNA damage in mouse model assessed as increase in expression of XRCC1 by measuring fold change
[4] = species: Mus musculus; assay: Reversal of oxidative stress-induced DNA damage in mouse model assessed as increase in expression of OGG1 by measuring fold change
[5] = species: Mus musculus; assay: Reversal of oxidative stress-induced DNA damage in mouse model assessed as increase in expression of APE1 by measuring fold change
[6] = Induction of DNA repair activity in human SUM149PT cells harboring BRCA1 mutant co-expressing GFP reporter gene at 1 uM relative to control; assay type: functional
[7] = Upregulation of OGG1 expression in mouse MCT cells assessed as fold increase at 2 mM
[8] = Activation of MTH1 (unknown origin); parameters: species or system Homo sapiens
[9] = system: HCC1806; assay: Antiproliferative activity against human HCC1806 cells assessed as reduction in cell viability incubated for 72 hrs by MTT assay; assay type: functional, cell-based; details: HCC1806, 72 h
[10] = Activation of rat liver AMPK
[11] = Upregulation of OGG1 level in human A549 cells at 30 uM measured for 48 hrs relative to control; assay type: functional
[12] = Induction of DNA repair activity in human SUM149PT cells harboring BRCA1 mutant co-expressing GFP reporter gene at 100 uM relative to control; assay type: functional
[13] = system: HCC1937; assay: Antitumor activity against human HCC1937 cells harboring BRAC1 mutant xenografted in NOD/SCID mouse assessed as increase in survival rate at 250 mg/kg, ip measured after 60 days relative to control; assay type: functional; details: time 60 day
[14] = Upregulation of BRCA2 expression in mouse Bone marrow cells at 5 uM; assay type: functional, Bone marrow cell
[15] = Upregulation of BRCA1 expression in mouse Bone marrow cells at 5 uM; assay type: functional, Bone marrow cell

In the case of `Cc1nc(-c2cccnc2)sc1C(=O)Nc1ccccc1-c1cn2c(CN3CCOCC3)csc2n1`, the EC1.5 [1] is reported as 0.43 µM.
Compound `Cc1cc(N[C@@H](C)C(=O)Nc2ccccc2)nc(Nc2ccccc2)n1` has an EC50 [2] of 4.1 µM.
With `O=c1c(O)c(-c2ccc(O)c(O)c2)oc2cc(O)cc(O)c12` [QUERCETIN] the “fold change (FC)” value [3] was 2, the “fold change (FC)” value [4] was 2 and the “fold change (FC)” value [5] was 2.
With `CC(=O)c1ccc(S(=O)(=O)NC(=O)NC2CCCCC2)cc1` [ACETOHEXAMIDE] the Activity [6] was 90%.
With `NC(=O)c1ncn([C@H]2O[C@@H](COP(=O)(O)O)[C@H](O)[C@@H]2O)c1N` the “fold change (FC)” value [7] was 5.
In the case of `CNc1nnc(C)c2c1cc(-c1ccc(F)cc1)n2C`, the EC50 [2] is reported as 5.1 µM.
`Cc1cnc(N2CCN3CCCC3C2)nc1Oc1ccc(-n2ccnc2)cc1` (stereo not given) showed an EC50 [2] of 4.6 µM.
With `O=C(Nc1ccc(CN2CCOCC2)c(C(F)(F)F)c1)c1ccc(C#Cc2cccc3cnccc23)cn1` the EC50 [8] was 5.5 µM and the IC50 [9] was 10 µM.
For `N#Cc1c(O)c2c(-c3ccc(-c4ccccc4O)cc3)csc2[nH]c1=O`, the EC50 [10] was 0.116 µM.
For `OC(Cn1ccnc1)(c1ccc(Cl)cc1Cl)C1CCCCC1` (stereo not given), the Activity [11] was 142.3% and the EC50 [2] was 5 µM.
Work on `Nc1ncnc2c1ncn2[C@H]1O[C@@H](COP(=O)(O)O)[C@H](O)[C@@H]1O` yielded an EC50 [10] of 6 µM.
Compound `COc1cc(C(=O)Nc2ccccc2-c2cn3c(CN4CCNCC4)csc3n2)cc(OC)c1OC` has an EC1.5 [1] of 2.9 µM.
For `NC(CO)C(=O)NNCc1ccc(O)c(O)c1O` (stereo not given) [BENSERAZIDE], the Activity [12] was 60% and the Activity [13] was “<=70%”.
Work on `COc1cc(/C=C/C(=O)CC(=O)/C=C/c2ccc(O)c(OC)c2)ccc1O` [CURCUMIN] yielded an Activity [14] of 170% and an Activity [15] of 170%.
